Measured values reported in PubChem BioAssay (NCI).
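Cultured in 96-well plates, cells were exposed to test compound for 48 hours across five concentrations. Definition used: TGI = concentration required for complete inhibition of growth.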

Key:
Experiment in all cases: DTP human tumour cell line panel, 48 h
HL-60(TB) leukemia = tested on: HL-60(TB) leukemia
CAKI-1 renal = tested on: CAKI-1 renal
MDA-MB-435 = tested on: MDA-MB-435
MALME-3M melanoma = tested on: MALME-3M melanoma
NCI/ADR-RES ovarian = tested on: NCI/ADR-RES ovarian
A549 NSCLC = tested on: A549 NSCLC
OVCAR-5 ovarian = tested on: OVCAR-5 ovarian
SK-MEL-28 melanoma = tested on: SK-MEL-28 melanoma
T-47D breast = tested on: T-47D breast
U251 CNS = tested on: U251 CNS
MCF7 breast = tested on: MCF7 breast
HS 578T breast = tested on: HS 578T breast
SNB-75 CNS = tested on: SNB-75 CNS
CCRF-CEM leukemia = tested on: CCRF-CEM leukemia
EKVX NSCLC = tested on: EKVX NSCLC
TK-10 renal = tested on: TK-10 renal
MDA-N = tested on: MDA-N
SR leukemia = tested on: SR leukemia
HOP-62 NSCLC = tested on: HOP-62 NSCLC
IGROV1 ovarian = tested on: IGROV1 ovarian

SMILES | TGI (HL-60(TB) leukemia) [µM] | TGI (CAKI-1 renal) [µM] | TGI (MDA-MB-435) [µM] | TGI (MALME-3M melanoma) [µM] | TGI (NCI/ADR-RES ovarian) [µM] | TGI (A549 NSCLC) [µM] | TGI (OVCAR-5 ovarian) [µM] | TGI (SK-MEL-28 melanoma) [µM] | TGI (T-47D breast) [µM] | TGI (U251 CNS) [µM] | TGI (MCF7 breast) [µM] | TGI (HS 578T breast) [µM] | TGI (SNB-75 CNS) [µM] | TGI (CCRF-CEM leukemia) [µM] | TGI (EKVX NSCLC) [µM] | TGI (TK-10 renal) [µM] | TGI (MDA-N) [µM] | TGI (SR leukemia) [µM] | TGI (HOP-62 NSCLC) [µM] | TGI (IGROV1 ovarian) [µM]
CC(C)C1OC23CCCCC2C(C#N)(C#N)C1(C#N)C(=N)O3 (stereo not drawn) | 30.8 | 22.4 | 80.6 | 39.6 | > 100 | > 100 | 47.5 | 87.3 | 71.7 | 63.9 | 36.6 | 42.3 | > 100 | > 100 | 77.7 | 48.4 | 32.7 |  |  | 
COc1cc(/C=C2\CCC(C)C3C2=NN(C(C)=O)C3c2cc(OC)c(OC)c(OC)c2)cc(OC)c1OC (stereo not drawn) | > 100 | > 100 | > 100 | > 100 |  | > 100 | > 36.3 | > 51.2 | 67.8 | > 100 | > 100 | > 92.2 | > 54.6 | > 100 | > 100 | > 100 | > 100 | > 100 | > 100 | 9.7
CC(=O)OCc1cc(CCC(=O)NCCNc2c3ccccc3nc3ccccc23)cc(COC(C)=O)c1O[Si](C)(C)C(C)(C)C | 6.2 |  | 8.06 | 25.6 | 45.9 | 24.4 | 29.1 | 18.2 | 5.73 | 19.7 | 4.57 | 13.9 |  | 20.5 | 36.1 | 23.2 | 21.9 | 4.91 | 32.5 | 27.6
COc1ccc(N=C2SC(=N/N=c3\sc4ccccc4n3C)SC2=Nc2ccc(OC)cc2)cc1 |  | > 100 | > 100 | > 100 | > 100 | > 100 | > 100 | > 100 | > 100 | > 100 | > 100 | > 100 | 94.5 |  | > 100 | > 100 | > 100 | > 100 | > 100 | > 100
COc1ccc(/C=C(/C(=O)c2ccc(Cl)cc2)N2C=CC=CC2=C(C#N)C#N)cc1OC | 7.79 | 5.69 | 19.1 | 2.91 | 44.9 | 30.4 | 32.6 | 11.5 | 29.4 | 24.4 | 16.9 | 26.3 | 20.3 | 0.665 | 10.6 | 17.8 | 20.1 |  | 51.1 | 14.9
COc1cc(Nc2cnc3cc(F)c(F)cc3n2)cc(OC)c1OC | > 100 | > 100 | > 100 | > 100 | > 100 | > 100 | > 100 | > 100 | > 100 | > 100 | > 100 | > 100 | > 100 | > 100 | > 100 | > 100 | > 100 |  | > 100 | > 100
CC(C)(C)C(=O)OCC1CCC[N+]2(C)CCCCC12 (stereo not drawn) |  | > 100 | > 100 | > 100 | > 100 | > 100 | > 100 | > 100 | > 100 | > 100 | > 100 | > 100 | > 100 | > 100 | > 100 | > 100 | > 100 | > 100 | > 100 | > 100
Cc1cc(N(CCC#N)CCC#N)ccc1/C(N=Nc1ccc([N+](=O)[O-])cc1)=N\NC(=O)c1cc(Cl)ccc1C(=O)c1ccccc1 |  | 62.5 | > 100 | 31.1 | 50.9 | > 100 | > 100 | > 100 | 50.3 | > 100 | 26.1 | 68 | > 100 | 12.5 | 28.3 | > 100 | > 100 |  | > 100 | 17.9
C[C@@H]1C[C@H]2[C@@H]3CCC4=CC(=O)C=C[C@]4(C)[C@@]3(Cl)[C@@H](Cl)C[C@]2(C)[C@@]1(O)C(=O)COP(=O)(O)O |  | > 100 | > 100 | > 100 |  | > 100 | > 100 | > 100 | > 100 | > 100 | > 100 | > 100 | > 100 |  | > 100 | > 100 | > 100 | > 100 | > 100 | > 100
CCOC(=O)C1=CC(C)(C(=O)OCC)Nc2c(nc(OC)n(C)c2=O)N1 (stereo not drawn) |  | > 10 | > 10 | > 10 | > 10 | > 10 | > 10 | > 10 | > 10 | > 10 | > 10 | > 10 | > 10 | > 10 | > 10 | > 10 | > 10 |  | > 10 | > 10
CC(=O)Nc1cc(C(=O)Nc2cc(C(=O)N3CC(CCl)c4c3cc(N)c3ccccc43)nn2C)nn1C (stereo not drawn) | < 0.0344 | 0.525 | 0.281 | 0.267 | 7.49 | 2.85 | 17.3 | 0.154 | 0.0931 | 0.856 | > 66.5 | 1.55 | 0.0775 | 0.0491 | 1.15 | > 100 | 0.389 |  | > 100 | 0.851
Cc1ccc(/C=N/n2c(=O)[nH]c3ccccc3c2=O)cc1 | > 100 | > 100 | > 100 |  |  | > 100 | > 100 | > 100 | > 100 | > 100 | > 100 | > 100 |  | > 100 | > 100 | > 100 | > 100 | > 100 | > 100 | > 100
CN1C(=O)N/C(=C\c2ccc(S(=O)(=O)NN)cc2)C1=O | > 100 | > 100 | > 100 | > 100 | > 100 | > 100 | > 100 | > 100 | > 100 | > 100 | > 100 | > 100 | > 100 | > 100 | > 100 | > 100 | > 100 |  | > 100 | > 100
O=C(NCCCCCCNC(=O)c1cccc2ccccc12)Nc1cccc2ccccc12 | > 100 | > 100 | > 100 | > 100 | > 100 | > 100 | > 100 | > 100 | > 100 | > 100 | > 100 | > 100 | > 100 | > 100 | > 100 | > 100 | > 100 |  | > 100 | > 100
CCCCCCCCCCCCCCCCCCNc1ccn(C2OC(COP(=O)(O)OCC3OC(n4cc(C)c(=O)[nH]c4=O)CC3O)C(O)C2O)c(=O)n1 (stereo not drawn) |  | 33.2 | 33.7 | 31.4 | 31.3 | 32.4 | 28.2 | 31.3 | 41.8 | 34.9 | > 100 | 42.4 | 33 | 23.6 | 34.9 | 22.3 | 33.1 | 28.2 | 32.4 | 
Cc1cccc(-c2nc3ccc([N+](=O)[O-])cc3c(=O)o2)c1 | > 100 | > 100 | > 100 | > 100 | > 100 | > 100 | > 100 | > 100 | > 100 | > 100 | > 100 | 97.9 | > 100 | 96.7 |  | > 100 | > 100 | > 100 | > 100 | > 100
Nc1nc(Cl)c(N)c(NC23CC4CC(CC(C4)C2)C3)n1 |  | 3.84 | 3.41 | 10.1 |  | 6.16 | 2.84 | 3.6 | 3.61 | 3.06 | 3.78 | > 100 | 4.91 | 5 | 5.36 | 5.54 | 3.31 | > 22.2 | 4.3 | > 100
CC(=O)OCCn1cnc2nc(Nc3ccccc3)nc(Cl)c21 | > 100 |  | > 100 | > 100 | > 100 | > 100 | > 100 | > 100 | > 100 | > 100 | > 100 | > 100 |  | > 100 | > 100 | > 100 | > 100 | > 100 | > 100 | > 100
CN(c1ccc(Cl)cc1)S(=O)(=O)c1ccc([N+](=O)[O-])cc1 | > 100 | > 100 | > 100 | > 100 | > 100 | > 100 | > 100 | > 100 | > 100 | > 100 | > 100 | > 100 | > 100 | > 100 | > 100 | > 100 | > 100 |  | > 100 | > 100
